Measurements from US20240043417A1, “COMPOUNDS FOR THE TREATMENT OF SARS” (Purdue Research Foundation, priority 2020, published 2024).
Read-outs that look alike come from different tables or passages of the source.

Assays:
SARS-CoV-2 = assay: microbe, parasite or virus in culture; format: cell-based; conditions: Severe acute respiratory syndrome coronavirus 2; read-out: Antiviral EC50 Data
SARS-CoV-2 3CLpro = SARS-CoV-2 3CLpro (Severe acute respiratory syndrome coronavirus 2 (2019-nCoV) (SARS-CoV-2), UniProt P0DTD1); assay: SARS-CoV-2 3CLpro enzyme inhibition assay; format: biochemical
[1] = SARS-CoV-2 3CLpro, 10 minutes pre-incubation of enzyme with compound, read-out: Enzyme IC50 Data

Row | Compound | EC50 (SARS-CoV-2) | IC50 (SARS-CoV-2 3CLpro) | IC50 (SARS-CoV-2 3CLpro; [1]) | IC50 (SARS-CoV-2 3CLpro; read-out: Enzyme IC50 Data, SARS-CoV-2 3CLpro, 10 minutes pre-incubation of enzyme with compound)
1 | CC(C)(C)NC(=O)N[C@H](C(=O)N1C[C@H]2[C@@H]([C@H]1C(=O)NC(C#N)C[C@@H]1CCNC1=O)C2(C)C)C(C)(C)C (some centres unmarked) | > 100 µM | – | – | –
2 | CCCC(=O)N[C@@H]1C[C@@H](C(=O)N[C@@H](C[C@H]2CCNC2=O)C(=O)c2nc3ccccc3s2)N(C(=O)[C@@H](NC(=O)NC(C)(C)C)C(C)(C)C)C1 | > 100 µM | 0.1 to 5 µM | – | –
3 | CCCO[C@@H]1C[C@@H](C(=O)N[C@@H](C[C@@H]2CCNC2=O)C(=O)c2nc(-c3ccccc3)cs2)N(C(=O)[C@@H](NC(=O)NC(C)(C)C)C(C)(C)C)C1 | 5 to 50 µM | – | > 100 µM | –
4 | CN(C)[C@@H]1C[C@@H](C(=O)N[C@@H](C[C@@H]2CCNC2=O)C(=O)c2nc(-c3ccccc3)cs2)N(C(=O)[C@@H](NC(=O)NC(C)(C)C)C(C)(C)C)C1 | – | – | 0.1 to 5 µM | –
5 | CCCC(=O)N[C@@H]1C[C@@H](C(=O)N[C@@H](C[C@H]2CCNC2=O)C(=O)c2nc3ccccc3s2)N(C(=O)[C@@H](NC(=O)OC(C)(C)C)C(C)(C)C)C1 | > 100 µM | 0.1 to 5 µM | – | –
6 | CCN(CC)[C@@H]1C[C@@H](C(=O)N[C@@H](C[C@@H]2CCNC2=O)C(=O)c2nc(-c3ccccc3)cs2)N(C(=O)[C@@H](NC(=O)NC(C)(C)C)C(C)(C)C)C1 | – | – | 0.1 to 5 µM | –
7 | CCCO[C@@H]1C[C@@H](C(=O)N[C@@H](C[C@@H]2CCNC2=O)C(=O)c2nc3ccccc3s2)N(C(=O)[C@@H](NC(=O)NC(C)(C)C)C(C)(C)C)C1 | 50 to 100 µM | 0.1 to 5 µM | – | –
8 | CCCO[C@@H]1C[C@@H](C(=O)N[C@@H](CC2CCNC2=O)C(=O)c2nc3ccccc3s2)N(C(=O)C(NC(=O)NC(C)(C)C)C(C)C)C1 (some centres unmarked) | 50 to 100 µM | 0.1 to 5 µM | – | –
9 | CC(C)(C)NC(=O)N[C@H](C(=O)N1C[C@H](N2CCOCC2)C[C@H]1C(=O)N[C@@H](C[C@H]1CCNC1=O)C(=O)c1nc2ccccc2s1)C(C)(C)C | – | – | 0.1 to 5 µM | –
10 | CC(C)(C)NC(=O)N[C@H](C(=O)N1C[C@H](N2CCCC2)C[C@H]1C(=O)N[C@@H](C[C@H]1CCNC1=O)C(=O)c1nc2ccccc2s1)C(C)(C)C | > 100 µM | 5 to 50 µM | – | –
11 | CC(C)(C)[C@H](NC(=O)NCc1ccncc1)C(=O)N1C[C@H]2[C@@H]([C@H]1C(=O)N[C@@H](C[C@@H]1CCNC1=O)C(=O)c1nc(-c3ccccc3)cs1)C2(C)C | – | – | 0.1 to 5 µM | –
12 | CC(C)(C)NC(=O)N[C@H](C(=O)N1C[C@H]2[C@@H]([C@H]1C(=O)N[C@@H](C[C@@H]1CCNC1=O)C(=O)C(N)=O)C2(C)C)C(C)(C)C | > 100 µM | – | – | –
13 | CCCO[C@@H]1C[C@@H](C(=O)N[C@@H](C[C@@H]2CCNC2=O)C(=O)c2nc3ccccc3s2)N(C(=O)[C@@H](NC(=O)OC(C)(C)C)C(C)(C)C)C1 [drawing 100] | – | – | – | 0.1 to 5 µM
14 | CCCN(CCC)[C@@H]1C[C@@H](C(=O)NC(C#N)C[C@@H]2CCNC2=O)N(C(=O)[C@@H](NC(=O)C(F)(F)F)C(C)(C)C)C1 (some centres unmarked) | > 100 µM | > 100 µM | – | –
15 | CCCN(CCC)[C@@H]1C[C@@H](C(=O)N[C@@H](C[C@H]2CCNC2=O)C(=O)c2nc3ccccc3s2)N(C(=O)[C@@H](NC(=O)NC(C)(C)C)C(C)(C)C)C1 | 5 to 50 µM | – | > 100 µM | –
16 | CCCN(CCC)[C@@H]1C[C@@H](C(=O)NC(C#N)C[C@@H]2CCNC2=O)N(C(=O)[C@@H](NC(=O)OC(C)(C)C)C(C)(C)C)C1 (some centres unmarked) | 5 to 50 µM | – | > 100 µM | –
17 | CC(C)(C)NC(=O)N[C@H](C(=O)N1C[C@H]2[C@@H]([C@H]1C(=O)N[C@@H](C[C@@H]1CCNC1=O)C(=O)c1nc(-c3ccccc3)co1)C2(C)C)C(C)(C)C | – | – | 50 to 100 µM | –
18 | CC(C)(C)NC(=O)N[C@H](C(=O)N1C[C@H]2[C@@H]([C@H]1C(=O)N[C@@H](C[C@@H]1CCNC1=O)C(=O)c1nc3ccccc3s1)C2(C)C)C(C)(C)C | 5 to 50 µM | 50 to 100 µM | – | –
19 | CC(=O)OC(C#N)[C@H](CC1CCCNC1=O)NC(=O)[C@@H]1[C@@H]2[C@H](CN1C(=O)C(NC(=O)NC(C)(C)C)C(C)(C)C)C2(C)C (some centres unmarked) | > 100 µM | – | – | –
20 | CCCN(CCC)[C@@H]1C[C@@H](C(=O)N[C@@H](C[C@H]2CCNC2=O)C(=O)c2nc3ccccc3s2)N(C(=O)[C@@H](NC(=O)OC(C)(C)C)C(C)(C)C)C1 | 5 to 50 µM | 0.1 to 5 µM | – | –
21 | CCCN(CCC)[C@@H]1C[C@@H](C(=O)N[C@@H](C[C@H]2CCNC2=O)C(=O)c2nc(-c3ccccc3)cs2)N(C(=O)[C@@H](NC(=O)NC(C)(C)C)C(C)(C)C)C1 | – | – | 0.1 to 5 µM | –
22 | CCCO[C@@H]1C[C@@H](C(=O)NC(C#N)C[C@@H]2CCNC2=O)N(C(=O)[C@@H](NC(=O)NC(C)(C)C)C(C)(C)C)C1 (some centres unmarked) | > 100 µM | 50 to 100 µM | – | –
23 | CC(C)(C)NC(=O)N[C@H](C(=O)N1C[C@H]2[C@@H]([C@H]1C(=O)N[C@@H](C[C@@H]1CCNC1=O)C(=O)C(=O)NCc1ccccc1)C2(C)C)C(C)(C)C | > 100 µM | 50 to 100 µM | – | –
24 | CC(C)(C)[C@H](NC(=O)c1ccccc1)C(=O)N1C[C@H]2[C@@H]([C@H]1C(=O)N[C@H](C#N)C[C@@H]1CCNC1=O)C2(C)C | 50 to 100 µM | – | – | –
25 | CCCO[C@@H]1C[C@@H](C(=O)N[C@@H](C[C@@H]2CCNC2=O)C(=O)c2nc3ccccc3s2)N(C(=O)[C@@H](NC(=O)OC(C)(C)C)C(C)(C)C)C1 [drawing 99] | 0.1 to 5 µM | 0.1 to 5 µM | – | –
26 | CC(C)(C)NC(=O)N[C@H](C(=O)N1C[C@H]2[C@@H]([C@H]1C(=O)N[C@@H](C[C@@H]1CCNC1=O)C(=O)c1nc(-c3ccccc3)cs1)C2(C)C)C(C)(C)C | 5 to 50 µM | 5 to 50 µM | – | –
